Source: article PMC5562448 (Chembiochem : a European journal of chemical biology, 2017)

Assays:
HSPA8 = HSPA8 (Homo sapiens, UniProt P11142); experiment: isothermal titration calorimetry; assay type: binding; details: n=1.1
HSPA1A = HSPA1A (Homo sapiens, UniProt P0DMV8); experiment: isothermal titration calorimetry; assay type: binding; details: n=0.9
Chain of HSPA1A (P0DMV8 2-641): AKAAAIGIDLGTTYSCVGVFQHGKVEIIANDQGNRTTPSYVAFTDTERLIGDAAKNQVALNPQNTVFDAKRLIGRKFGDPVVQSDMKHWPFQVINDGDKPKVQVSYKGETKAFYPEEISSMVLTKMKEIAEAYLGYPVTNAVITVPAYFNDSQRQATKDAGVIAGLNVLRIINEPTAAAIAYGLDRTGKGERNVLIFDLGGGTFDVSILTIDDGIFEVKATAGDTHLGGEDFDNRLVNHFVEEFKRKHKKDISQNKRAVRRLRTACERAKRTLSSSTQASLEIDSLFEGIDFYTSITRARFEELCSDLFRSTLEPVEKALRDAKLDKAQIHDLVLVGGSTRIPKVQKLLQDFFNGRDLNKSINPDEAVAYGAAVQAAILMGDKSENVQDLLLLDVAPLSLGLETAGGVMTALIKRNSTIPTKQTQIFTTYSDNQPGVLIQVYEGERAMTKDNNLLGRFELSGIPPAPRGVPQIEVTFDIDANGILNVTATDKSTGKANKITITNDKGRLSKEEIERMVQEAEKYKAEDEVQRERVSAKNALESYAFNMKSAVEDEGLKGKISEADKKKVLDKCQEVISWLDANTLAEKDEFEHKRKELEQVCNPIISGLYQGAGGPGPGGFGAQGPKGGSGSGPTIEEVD

Chain of HSPA8 (P11142 2-646): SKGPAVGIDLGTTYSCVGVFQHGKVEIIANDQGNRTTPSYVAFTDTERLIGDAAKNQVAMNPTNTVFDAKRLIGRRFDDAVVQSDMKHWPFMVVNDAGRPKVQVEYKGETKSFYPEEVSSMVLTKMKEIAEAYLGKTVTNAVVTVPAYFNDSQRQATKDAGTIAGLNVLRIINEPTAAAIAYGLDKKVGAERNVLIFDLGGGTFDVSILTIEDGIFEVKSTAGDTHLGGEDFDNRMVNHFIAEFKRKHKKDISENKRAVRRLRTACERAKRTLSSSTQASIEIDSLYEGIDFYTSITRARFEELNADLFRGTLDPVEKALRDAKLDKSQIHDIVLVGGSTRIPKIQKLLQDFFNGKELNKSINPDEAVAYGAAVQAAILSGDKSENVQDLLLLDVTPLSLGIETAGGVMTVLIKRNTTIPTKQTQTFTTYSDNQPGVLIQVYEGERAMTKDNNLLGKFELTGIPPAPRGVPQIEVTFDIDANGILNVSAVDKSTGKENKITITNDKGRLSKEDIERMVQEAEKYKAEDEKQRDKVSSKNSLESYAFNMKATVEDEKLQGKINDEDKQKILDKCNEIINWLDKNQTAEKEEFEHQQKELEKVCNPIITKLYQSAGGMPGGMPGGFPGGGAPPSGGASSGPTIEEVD

**Q.** With `C[C@@H]1[C@]2(O[C@H]3C=C4[C@@H]5CC[C@H]6Cc7nc8c(nc7C[C@]6(C)[C@H]5C[C@@H](O)[C@]4(C)[C@]31O)C[C@@H]1CC[C@H]3C4=C[C@@H]5O[C@]6(CCC(C)(C)O6)[C@@H](C)[C@@H]5[C@@]4(C)[C@H](O)C[C@@H]3[C@@]1(C)C8)O[C@](C)(CO)C[C@H]2O` [compound 3, ritterostatin GN1N] as the compound, how does the Kd (HSPA8) read?
**A.** Its Kd is 1630 nM.

**Q.** And the Kd (HSPA1A)?
**A.** Its Kd is 625 nM.
